Like-named read-outs stand apart in the source and are kept apart here.
What was measured:
[1] = system: P. yoelii (Kenya strain, MR4 MRA-428); test: In vivo efficacy against murine malaria, modified 4-day test, oral gavage; conditions: mice
[2] = system: P. falciparum chloroquine-resistant (CQR) Dd2 strain; test: microbe, parasite or virus in culture; assay type: cell-based; conditions: Plasmodium falciparum, DD2, read-out: antimalarial activity (IC50 in nM) Dd2
[3] = system: P. falciparum chloroquine-resistant (CQR) 7G8 strain; test: microbe, parasite or virus in culture; assay type: cell-based; conditions: Plasmodium falciparum, 7G8, read-out: antimalarial activity (IC50 in nM) 7G8
[4] = system: P. falciparum chloroquine-sensitive (CQS) D6 strain; test: Malaria SYBR Green I-based Fluorescence; assay type: cell-based, Plasmodium falciparum
[5] = system: multidrug-resistant P. yoelii; conditions: 100 mg/kg/day, oral route; cited from earlier work
[6] = HepG2 cytotoxicity assay; assay type: cell-based; conditions: human, cytotoxicity (IC50 in nM) HepG2, HepG2 cells
[7] = Plasmodium falciparum, D6, read-out: antimalarial activity (IC50 in nM) D6

SMILES | IC50 [2] [nM] | IC50 [3] [nM] | IC50 [4, 7] [nM] | further results
CCN(CC)CCCC(C)Nc1ccnc2cc(Cl)ccc12 (stereo not shown) [CQ, chloroquine] | 115 | 130 | 13 | % suppression of parasitaemia on day 5 ([1]; 1 mg/kg × 4 days): 65%; % suppression of parasitaemia on day 5 ([1]; 4 mg/kg × 4 days): 94%; % suppression of parasitaemia on day 5 ([1]; 16 mg/kg × 4 days): 100%; % suppression of parasitaemia on day 5 ([1]; 64 mg/kg × 4 days): 100%
CCCCCCCCCCCC1=N/C(=C\c2[nH]c(-c3ccc[nH]3)cc2OC)C=C1 [Compound 1a, undecylprodiginine, reference compound] | 7.5 | 7 | 7.2 | –
CCC1CCCCCCCCC2=N/C(=C\c3[nH]c(-c4ccc[nH]4)cc3OC)C1=C2 (stereo not shown) [Compound 3b, metacycloprodiginine] | – | – | – | mice cured [5]: three of four
COC1=CC(c2cccn2C)=NC1=Cc1c(Cc2ccc(Cl)cc2)cc(Cc2ccc(Cl)cc2)n1C [Compound 87, 5’-((3,5-Bis(4-chlorobenzyl)-1-methyl-pyrrol-2-yl)methylene)-4’-methoxy-1-methyl-2,2’-bipyrrole] | > 2500 | > 2500 | > 2500 | –
O=C(CNC(=O)c1ccc[nH]1)NC12CC3CC(CC(C3)C1)C2 [Compound 190, N-(2-((Adamantan-1-yl)amino)-2-oxoethyl)-pyrrole-2-carboxamide] | > 2500 | > 2500 | > 2500 | –
c1c[nH]c(CNCCNC23CC4CC(CC(C4)C2)C3)c1 [Compound 191, N^1-((Pyrrol-2-yl)methyl)-N^2-(adamantan-1-yl)ethane-1,2-diamine] | > 2500 | > 2500 | > 2500 | –
O=C(C=Cc1ccc[nH]1)NCC(=O)NC12CC3CC(CC(C3)C1)C2 [Compound 194] | – | – | – | IC50 ([4]; read-out: antimalarial activity (IC50 in nM) D6): > 2500 nM
c1c[nH]c(CCCNCCNC23CC4CC(CC(C4)C2)C3)c1 [Compound 196, N^1-(3-(Pyrrol-2-yl)propyl)-N^2-(adamantan-1-yl)ethane-1,2-diamine] | > 2500 | > 2500 | > 2500 | –
OC(c1cc(C(F)(F)F)nc2c(C(F)(F)F)cccc12)C1CCCCN1 (stereo not shown) [MQ, mefloquine] | – | – | – | IC50 [6]: 21800 nM

Source: PMC11177801 (Journal of medicinal chemistry, 2015)
